The data set can be described thus: clinical. The conditions noted are these: male, human, plasma, po.

The structures appear in SMILES notation.

Results on two molecules are retold here after US20080090881A1, “TREATMENT OF DIABETES WITH THIAZOLIDINEDIONE AND METFORMIN” (SmithKline Beecham plc, priority 1997, published 2008).

The Tmax is the time from dosing to the highest level. As a reminder, the half-life is how long it takes for the measured level to halve. High values mean slow loss, low ones fast loss.

Method: Sixteen male volunteers, aged 22 to 55 years, received oral Compound (I) (2 mg Q 12 h), M (500 mg Q12 h), or the combination, each for 4 days.

For the molecule `CN(CCOc1ccc(CC2SC(=O)NC2=O)cc1)c1ccccn1` (stereo not drawn) [Compound (I), 5-[4-[2-(N-methyl-N-(2-pyridyl)amino)ethoxy]benzyl]thiazolidine-2,4-dione], the Tmax worked out at 3 h and the half-life was 3.24 h.

As to `CN(C)C(=N)N=C(N)N` [M, 1,1-Dimethylbiguanidine, reference compound], the Tmax was 3 h.
